The values below are quoted from earlier work in patent US9555118B2, “Robust controlled-release peptide formulations” (CAMURUS AB, priority 2011, dated 2017).

*1 amine or outer side, *2 acyl side, *3 side chain or, on linkers, in order; H or OH if unused. Where a SMILES comes first, the peptide text is derived from it. Side-chain parts run from the residue outwards. [ ]: non-standard residue; d: D form. The star is where a group is joined. Ethylenediamine = C(CN[*:2])N[*:1]; Hyp = O=C(O)[C@@H]1C[C@@H](O)CN1; Phg = N[C@H](C(=O)O)c1ccccc1; CO = O=C([*:1])[*:2]; Bn = c1ccc(C*)cc1

The subject of series [1] is somatostatin receptors (SSTR1-SSTR5).
The conditions of series [2]: single subcutaneous dose, human plasma.

Take `C[C@@H](O)[C@@H]1NC(=O)[C@H](CCCCN)NC(=O)[C@@H](Cc2c[nH]c3ccccc23)NC(=O)[C@H](Cc2ccccc2)NC(=O)[C@@H](NC(=O)[C@H](N)Cc2ccccc2)CSSC[C@@H](C(=O)N[C@H](CO)[C@@H](C)O)NC1=O` [Octreotide, D-Phe-Cys-Phe-D-Trp-Lys-Thr-Cys-Thr-ol (2-7 disulphide bridge)]: the Terminal half-life result (in vivo) is listed as “around 1.7 hours”. Also, the Somatostatin receptor selectivity result in series [1] was “high selectivity for SSTR2 and SSTR5”.

With `NCCCC[C@@H]1NC(=O)[C@@H](Cc2c[nH]c3ccccc23)NC(=O)[C@H](c2ccccc2)NC(=O)[C@@H]2C[C@@H](OC(=O)NCCN)CN2C(=O)[C@H](Cc2ccccc2)NC(=O)[C@H](Cc2ccc(OCc3ccccc3)cc2)NC1=O` [Pasireotide] (cyclo([Hyp]([CO-Ethylenediamine])[Phg][dW]KY(Bn)F)), the “Initial half-life following the peak” value in series [2] was 2 to 3 h. For the same compound, the Somatostatin receptor affinity result in series [1] is “high affinity for somatostatin receptor subtypes sstr1,2,3 and sstr5”.

Take “Ala-Gly-Cys-Lys-Asn-Phe-Phe-Trp-Lys-Thr-Phe-Thr-Ser-Cys [SST-14]”: under “natural SST-14”, the Biological half-life is reported as 1-3 minutes. Besides, in series [1], the Somatostatin receptor affinity result was “equally high affinity”.
